Laboratory results from patent US12082579B2, “Compositions and methods to manage hemiptera” (ISCA Technologies, Inc., priority 2021, dated 2024).

Tested on: Diceraus melacanthus
Test: Field study in a wheat harvest area: attraction of stink bugs by pear ester versus regular pheromone, 24 hour period, six blocks
Assay type: in vivo
Conditions: for attraction rate (stink bugs attracted per treatment): wheat harvest area
Method: A study was conducted to evaluate the effectiveness of pear ester versus regular pheromone to attract sting bugs. In particular, a study was conducted in a wheat harvest area in an attempt to attract the stink bug, Diceraus melacanthus.

CCCCC/C=C\C=C\C(=O)OCC [Pear Ester, Ethyl-2E,4Z-decadienoate]
attraction rate compared with regular pheromone (24 hour period, six blocks, result in words): at least, the same as the regular pheromone | attraction rate (stink bugs attracted per treatment) (Block 1, 24 hour period): 3 | attraction rate (stink bugs attracted per treatment) (Block 2, 24 hour period): 1 | attraction rate (stink bugs attracted per treatment) (Block 3, 24 hour period): 0 | attraction rate (stink bugs attracted per treatment) (Block 4, 24 hour period): 0 | attraction rate (stink bugs attracted per treatment) (Block 5, 24 hour period): 3 | attraction rate (stink bugs attracted per treatment) (Block 6, 24 hour period): 1 | attraction rate, Mean (Mean of six blocks, 24 hour period): 1.33 | attraction rate, Sum (Sum of six blocks, 24 hour period): 8.00 | attractant effect on stink bugs (stink bugs, including Diceraus melacanthus, Nezara viridula, Piezodorus guildinii, Tibraca limbativentris, Chinavia spp, Edessa meditabunda, Euschistus heros, result in words): clearly has an attractant effect
